Earlier results on three molecules are cited in patent publication US20080161337A1 (priority 2007, published 2008).

Data set [1] has as its system SIBO. As to conditions: for clinical efficacy for treating SIBO: antibiotics traditionally recommended for treating SIBO.
In data set [2] the test system is SIBO. As to conditions: 21 patients with SIBO.
For data set [3], the system named is IBS patients. As to conditions: 86 IBS patients; sustained for ten weeks after a ten day course.
The subject of data set [4] is SIBO. Conditions: 34 patients with SIBO and functional gastrointestinal symptoms.
In data set [5] the test system is IBS patients with abnormal LBT. As to conditions: 82 IBS patients with abnormal LBT; 54-day average follow up.
For data set [6], the system named is functional bowel syndrome patients with abnormal LBT. Conditions: 20 functional bowel syndrome patients with abnormal LBT; 63-day average follow up.
Data set [7] concerns IBS patients.

Consider `Cc1ncc([N+](=O)[O-])n1CCO` [metronidazole], for which the “clinical efficacy for treating SIBO” value in data set [1] is 5%.

In the case of `CO[C@H]1/C=C/O[C@@]2(C)Oc3c(C)c(O)c4c(O)c(c5c(nc6cc(C)ccn65)c4c3C2=O)NC(=O)/C(C)=C\C=C\[C@H](C)[C@H](O)[C@@H](C)[C@@H](O)[C@@H](C)[C@H](OC(C)=O)[C@@H]1C` [rifaximin], the “solubility in water” value is “practically insoluble in water”. The “improvement in functional gastrointestinal symptoms” value in data set [2] was “greater with rifaximin than chlortetracycline”. Moreover, the “patients with normalized LBT” value in data set [2] (rifaximin seven days at 1200 mg/day) was 70%. In addition, the “global IBS symptoms” value in data set [3] was “statistically significant improvement”. Besides, in data set [1] (human, in vivo), the “effectiveness against SIBO” value is listed as “highly effective against SIBO”. In addition, in data set [4], the “LBT results and functional gastrointestinal symptoms” value was “improved LBT results and functional gastrointestinal symptoms”. Further, the “combined global improvement rated great and moderate” value in data set [5] is 60%. For the same molecule, in data set [6], the “combined global improvement rated great and moderate” value is 63%.

Regarding neomycin, the “clinical efficacy for treating SIBO” value in data set [1] is listed as 25%. For the same molecule, the results versus placebo in data set [7] (111 IBS patients randomized to neomycin or placebo) is reported as “significantly better results”. Moreover, in data set [7] (when the LBT was normalized), the improvement of symptoms is 75%.
